Consider 1 substance from patent publication US20130130376A1, “SCREENING METHODS, COMPOSITIONS IDENTIFIED THEREBY, TOOLS USEFUL FOR THE IDENTIFICATION THEREOF, AND CELL POPULATIONS PRODUCED THEREBY” (priority 2010, published 2013).

The test system of the assay is Jurkat cells. The assay can be described thus: ECMP attachment screen for Jurkat cell attachment on hydrogel array spots. It is filed as cell-based, human. Conditions: printed alone in a 400 μm spot on hydrogel coated slide; nuclear fluorescence (DraQ) after 3 hours of attachment. As to the method:
In certain embodiments, stock solutions of extracellular matrix (ECM) components (0.01 mg/ml-1 mg/ml), such as Collagen I, III, IV, V, VI, Fibronectin, Laminin, and the like, as well as Hyaluronic Acid, gelatin and BSA (negative control) are mixed 1:1 with 200 mM acetate, 10 mM EDTA, 40% (v/v) glycerol, and 0.5% (v/v) Triton X-100 in MQH2O, at pH 4.9. Individual and combinations of different components are mixed in 384-well plates. This ECM based array is used to screen for the optimal cell attachment conditions.
The human acute T cell leukemia Jurkat cell line (ATTC Number TIB-153) was purchased from American Type Culture Collection (ATCC). Cells were cultured in RPMI-1640, supplemented with 10% FBS, 2 mmol/liter glutamin and antibiotics (100 IU/ml of penicillin G) and incubated at 37° C. in a humidified atmosphere of 5% CO2. […]
FIG. 3, for example, summarizes the attachment components that were identified to support Jurkat cell attachment on invention arrays. Briefly, Jurkat nuclear intensity was monitored by fluorescence using DraQ staining after 3 hours of attachment. The slides were read using a […] and fluorescence was quantified using the Genepix 2.0 software. […]

Turning to Fibronectin, the Jurkat cell attachment result is given as “consistently supported attachment of Jurkat cells”.
